Experimental data reported in patent US20200138966A1, “BIFUNCTIONAL SMALL PEPTIDE FOR AUTOIMMUNE DIABETES” (Board of Supervisors of Louisiana State University and …, priority 2017, published 2020).

Assays:
NOD/LtJ T cells = conditions: in conjunction with SDF-1α; cited from earlier work
human CD3 T cell = assay: Shear mediated CD3 T cell detachment from fresh frozen human pancreas tissue; type: cell-based; conditions: SDF-1α pretreatment, physiological shear stress
From the text: FIG. 3 is a line graph showing non-diabetic human CD3 T cell shear mediated detachment from fresh frozen human pancreas tissue with or without SDF-1 pretreatment.
FIG. 4 is a line graph showing T1D human CD3 T cell detachment from fresh frozen human pancreas tissue with or without SDF-1 pretreatment. 3 non-diabetic and 3 T1D subjects <1 yr diagnosis were used for T cell isolations. *p<0.01 w/o vs with SDF-1 treatment.
SDF-1α stimulates diabetogenic T cell chemorepulsion: a novel mechanism for potential therapeutic intervention in T1D. Chemokines may be differentially expressed in T1D, which play a role in leukocyte infiltration and adhesion. SDF-1α plays a key role in leukocyte adhesion by activating leukocyte integrins to higher affinity state that promotes their clustering. Due to this effect, SDF-1α has been viewed as a universally potent chemoattractant for leukocyte recruitment at low nanomolar concentrations. However, the inventors discovered novel mechanisms of autoimmune T cell chemorepulsion responses in autoimmune NOD/LtJ diabetic mice and in human T1D T cells at SDF-1α concentrations ranging from 1-100 nM.

NOD/LtJ CD3 T cells = assay: Hydrodynamic shear detachment assay of T cells off TNF-α activated islet endothelial cells; type: cell-based, mouse
From the text: T cell Robo-1 expression governs SDF-1 mediated detachment: The inventors examined whether Robo-1 immuno-neutralization could affect SDF-1α mediated chemorepulsion of NOD/LtJ CD3 T cells. FIGS. 5-7 show results from hydrodynamic shear detachment assays of T cells off of TNF-α activated islet endothelial cells. FIG. 5 illustration indicates molecular events. FIGS. 6 and 7 illustrate the effect of Robo-1 antibody on T cell detachment at low and higher shear rates (1 and 2.5 dyne/cm^2, respectively).

NOD CD3 T cell = assay: CD3 T cell adhesion to TNF-α activated islet microvascular endothelial cells; type: cell-based, mouse; conditions: SDF-1α 50 ng/ml; NOD compared to NON or C57 T cells; FIG. 2
NOD/LtJ CD3 T cell = assay: Shear mediated detachment from parallel plate flow chambers coated with recombinant Fc chimera ICAM-1 and VCAM-1; type: cell-based, mouse; conditions: SDF-1 (250 ng/ml) without Slit-2; FIG. 13
Description: FIG. 13 is a bar graph showing NOD CD3 T cell shear detachment at 1 dyne/cm^2 to adhesion molecules with SDF-1 (250 ng/ml) ±Slit-2 (20 μg/ml). *p<0.05 between indicated comparisons.
FIG. 14 is a bar graph showing NOD CD3 T cell shear detachment at 2.5 dyne/cm^2 to adhesion molecules with SDF-1 (250 ng/ml) ±Slit-2 (20 μg/ml). *p<0.05 between indicated comparisons.
Slit-2 peptide stimulates SDF-1 mediated NOD/LtJ T cell detachment: The inventors next examined whether Slit2 engagement of NOD/LtJ T cell Robo-1 could facilitate SDF-1 mediated chemorepulsion. To study this in an unambiguous way, recombinant Fc chimera endothelial cell adhesion molecules ICAM-1 and VCAM-1 was used to coat the surface of parallel plate flow chambers with or without SDF-1α to precisely control the density and presentation of adhesion molecules and chemokine for adhesive interactions.

NOD mice = conditions: inhibition of CXCR4 activity; cited from earlier work

For “TITEIRLEQN [LRR-7, Slit-2 peptide containing LRR domain]”, the “attachment of NOD/LtJ T cells from recombinant endothelial cell adhesion molecules” value (from here on “attachment of NOD/LtJ T cells”) (NOD/LtJ T cells) is listed as “can inhibit attachment”.

In the case of “LRRIDLSNN [LRR-8, Slit-2 peptide containing LRR domain]”, the “attachment of NOD/LtJ T cells” value (NOD/LtJ T cells) is given as “can inhibit attachment”.

For “SDF-1α: chemokine, ligand of CXCR4, used to treat T cells or coat flow chambers (AYWKENKEQ)”, the “human T1D T cell detachment from fresh human pancreas tissue” value (human CD3 T cell; T1D subjects, FIG. 4) was “selectively stimulated human T1D T cell detachment”, the “T cell detachment of non-T1D subjects from fresh human pancreas tissue” value (human CD3 T cell; non-diabetic subjects, FIG. 3) was “not T cell detachment of non-T1D subjects” and the “NOD T cell shear detachment” value (NOD/LtJ CD3 T cells; 1 dyne/cm^2, FIG. 6) was “stimulates NOD T cell shear detachment”. For the same molecule, the “NOD T cell shear detachment” value (NOD/LtJ CD3 T cells; 2.5 dynes/cm^2, FIG. 7) was “stimulates NOD T cell shear detachment”, the “NOD CD3 T cell adhesion to TNF-α activated islet endothelial cells” value (NOD CD3 T cell) was “selectively prevents NOD CD3 T cell adhesion” and the “NOD/LtJ CD3 T cell shear mediated detachment from ICAM-1 and VCAM-1” value (NOD/LtJ CD3 T cell) was “even more resistant to shear detachment”.

For “LNLLSLYDN [LRR-11, Slit-2 peptide containing LRR domain]”, the “attachment of NOD/LtJ T cells” value (NOD/LtJ T cells) is listed as “can inhibit attachment”.

For c1cc(CN2CCCNCCNCCCNCC2)ccc1CN1CCCNCCNCCCNCC1 [AMD3100], the “adoptive transfer of diabetes” value (NOD mice) is listed as “exacerbated adoptive transfer of diabetes”.

In the case of “LNSLVLYGN [LRR-9, Slit-2 peptide containing LRR domain]”, the “attachment of NOD/LtJ T cells” value (NOD/LtJ T cells) is listed as “can inhibit attachment”.

In the case of “LQLLLLNAN [LRR-10, Slit-2 peptide containing LRR domain]”, the “attachment of NOD/LtJ T cells” value (NOD/LtJ T cells) is given as “can inhibit attachment”.
